Assays:
HepG2 cells [1] = assay: BrdU incorporation cell proliferation assay; assay type: cell-based; settings: Homo sapiens
Description: HepG2 cells (see e.g., Aden et al., Nature 282:615-616 (1979)) (ATCC HB-8065) were maintained in DMEM/F-12 medium with 10% fetal bovine serum and 1% antibiotic/antimycotic. For routine culturing and mRNA preps, cells were grown in 75 cm^2 flasks and split every 4-5 days. For plate assays, cells were plated in 96-well microtiter plates at 1×10^5 cells per well in 100 μl of growth medium.
Depending on the desired exposure time, cell treatments began 3 or 4 days after splitting or plating. At this time, the cells were near or at confluency. […] Cell treatments were at 37° C.
Uptake of 5-bromo-2′-deoxyuridine (BrdU) was measured using the Cell Proliferation ELISA kit from Boehringer-Mannheim (Indianapolis, Ind.).
Cell proliferation assays based on measurement of BrdU incorporation were performed according to the manufacturer's instructions (Boehringer Mannheim “Cell Proliferation ELISA Kit”).

HepG2 cells [2] = assay: Dot blot array expression assay; settings: 24 hr, two-fold threshold
Description: The quality of the PCR reactions was assessed by agarose gel electrophoresis. Human genomic DNA (Clontech) and PCR products were robotically dotted in 100 nl aliquots onto positively-charged nylon membranes using the BioDot instrument (Cartesian Technologies, Inc.). After uv-crosslinking, the membranes were rinsed in 2× SSC and allowed to air-dry. Prior to addition of labeled cDNA probes, membranes were washed in boiling 1% SDS, rinsed with 6× SSC, and incubated in 5 mL of 42° C. Microhyb solution (Research Genetics) for 2 hr. Ten minutes prior to addition of the probes, the Microhyb solution was replaced with an equal amount of fresh 42° C. Microhyb solution containing denatured human Cot-1 DNA (Gibco BRL) and poly(dA) primer (Research Genetics) (both at final concentrations of 1 ng/μl).
For each reverse transcription reaction, 2 μg of mRNA was incubated with oligo(dT) primer (200 ng/μl) at 70° C. for 10 minutes. Tubes were chilled and spun briefly. The following reagents (with the final concentrations in parentheses) were added: first strand buffer (1×), DTT (10 mM), dNTP mix (1 mM each of dATP, dGTP, dTTP), [α-^33P]dCTP (3.3 μCi/μl) and Superscript II Reverse Transcriptase (10 units/μL). The samples were kept at 37° C. for 1.5 hr. Unincorporated nucleotides were removed by spinning the reaction mixture through a G-50 column. […] Probe quality was assessed by electrophoresis on a 10% denaturing polyacrylamide minigel. Denatured probes were added directly to the Microhyb solution and hybridized overnight at 42° C. Membranes were washed twice under each of the following conditions: (1) 2× SSC/0.1% SDS at room temperature, 5 min; (2) 0.2× SSC/0.1% SDS at room temperature, 5 min; (3) 0.2× SSC/0.1% SDS at 42° C., 15 min, (4) 0.1× SSC/0.1% SDS at 68° C., 15 min. Membranes were then rinsed briefly in 2× SSC at room temperature, covered with Saran wrap, and exposed to storage phoshpor screens. After three days, screens were scanned using a Storm phosphorimager (Molecular Dynamics). Images were analyzed using ImageQuant software (Molecular Dynamics).
We employed a rapid dot blot assay as a secondary screen for gene expression changes. We tested each of the unique clones against each of the three treatments. […] For these clones, the dot blot assay functioned not as a confirmation assay but as an initial screen for differential expression. Dot blots were prepared by robotically arraying subclone-derived PCR products in quadruplicate onto positively charged nylon membranes. […] In general, each dot consisted of over 80 ng of PCR product, as estimated by inspection of the PCR reactions run on agarose gels. This high quantity of DNA ensured that saturation of spots, with consequent loss of quantitation, would not occur. Spots of genomic DNA were included on each filter to allow normalization between control and treated sample intensities.

HepG2 cells [3] = assay: cDNA array (GF200) expression profiling; assay type: cell-based, human; settings: 20 mM acetaminophen, 16 mM caffeine, 100 mM thioacetamide
Description: Cells were grown in DMEM/F12 medium with 10% fetal bovine serum in tissue culture flasks for 3 days following splitting, at which time they were at or near confluency. […] For each treated sample, an untreated control flask was set up with the same medium. Following the treatment period, mRNA was isolated by affinity purification on oligo(dT) cellulose resin using the Poly(A) Pure mRNA isolation kit from Ambion. RNA quality was assessed by agarose gel electrophoresis, and yields were determined by absorbance at 260 nm.
Radiolabeled cDNA for array hybridizations were prepared as follows. To a solution of 2 μg of RNA in 8 μl DEPC-treated water was added 2 μl of 1 μg/μl oligo(dT) (10-20 mer mixture, Research Genetics). After incubation for 10 min at 70° C., the solution was chilled on ice for 2 min, and then added to 6 μl of 5× first strand buffer (250 mM Tris-HCl (pH 8.3), 375 mM KCl, 15 mM MgCl2; Gibco-BRL), 1 μl of 0.1M DTT, 1.5 μl dNTP mix (20 mM each dATP, dGTP and dTTP), 10 μl of 10 mCi/ml [α-^33P]dCTP (1000 Ci/mmol, Amersham), and 1.5 μl of 200 U/μl reverse transcriptase (Superscript II, Gibco-BRL). Following a 90 min incubation at 37° C., cDNA targets were purified by passage through G-50 Sephadex spin columns (Pharmacia) or Bio-Spin 6 columns (BioRad).
GF200 cDNA arrays (Research Genetics) were washed in 0.5% boiling SDS for 5 min and prehybridized for 3 hrs at 42° C. in 5 ml MicroHyb solution (Research Genetics) containing 5 μl of 1 μg/ml poly(dA) (Research Genetics) and 5 μl of 1 μg/ml human Cot-I DNA (Gibco-BRL) that was denatured for 3 min at 100° C. prior to use. Labeled target nucleic acids, boiled for 3 min, were added directly, and hybridization was allowed to proceed for 16-18 hr at 42° C. in roller bottles in hybridization ovens. Arrays were washed twice in 2× SSC, 1% SDS at room temperature for 2 min, and then twice in 0.5× SSC, 1% SDS at 65° C. for 20 min. Arrays were exposed to storage phosphor screens for 3 days and scanned using a phosphorimager (Molecular Dynamics). Arrays were stripped for reuse by placing in boiling 0.5% SDS and then incubating for 1.5 hr with shaking at room temperature, allowing to solution to cool. After stripping, arrays were exposed to storage phosphor screens overnight to confirm loss of signal.
Spot intensities were determined using Pathways software (Research Genetics). Data from quadruplicate sets of hybridizations were normalized by local regression using NLR software (Tom Kepler, North Carolina State University). Cluster analysis was carried out using the Clustan Graphics software package from Clustan Limited (Edinburgh).

Cn1c(=O)c2c(ncn2C)n(C)c1=O [caffeine]
inhibition at 16000 µM (HepG2 cells [1]; HepG2, 24 h, read-out: Inhibition of BrdU uptake (cell proliferation)): 67 to 80%
IC50 (HepG2 cells [1]; HepG2, read-out: IC50, BrdU incorporation in HepG2 cells): ~6 mM
Number of 27 unconfirmed or non-matching clones showing an expression change (HepG2 cells [2]): 7
Number of genes with statistically significant (p<0.05) change in expression in three or more adjacent time points (HepG2 cells [3]; 1 to 24 hr time course): 158
Global differential gene expression (rms) over time (HepG2 cells [3]; 1 to 24 hr): few changes until 6 hr, after which overall differential expression is fairly constant

Source: US20020110808A1, “Toxicant-induced differential gene expression” (priority 2000, published 2002)
